The text below walks through data of PMC8765781, “A platform of assays for the discovery of anti-Zika small-molecules with activity in a 3D-bioprinted outer-blood-retina model” (PLoS ONE, 2022).

Like-named read-outs stand apart in the source and are kept apart here.

The subject of this assay is wild-type ZIKV (Ugandan MR766 strain) in Vero cells. The assay can be described thus: ZIKV cytopathic effect (CPE) inhibition qHTS assay, CellTiter-Glo readout. The assay is classed as cell-based, Zika virus. Particulars: for Emax: read-out: Max response. On the technique in general: Protection from cytopathic effect is a common read-out in antiviral testing.
Where [1] appears, read: Zika virus, Vero, read-out: Log AC50 (M) (converted).
Setting [2] is: Zika virus, Vero, from Hill fit of the response curve, 50% of maximum activity response, 194 cherry-picked compounds, protocol name not given, read-out: AC50.
Setting [3] is: Zika virus, Vero, potency in log units (Molar) from Hill fit of the response curve, 194 cherry-picked compounds, protocol name not given, read-out: Log AC50 (converted).
Setting [4] is: difference between neutral response and maximum compound response.
Where [5] appears, read: curve class v2 (Inglese et al. 2006).

For the compound `CC(=O)OC[C@]12C[C@H](O)C(C)=C[C@H]1O[C@@H]1[C@H](O)[C@@H](O)[C@@]2(C)[C@]12CO2` [NCGC00380760-01], the “CC-v2 (curve class classification of the dose response curve)” value (“CC-v2” below) is reported as -1.2, the Efficacy was -57.268, the “Log AC50 (M)” value is recorded as -4.894 M and the “Max Resp” value is recorded as -47.163. Moreover, under “read-out: AC50”, the AC50 came to 1.28e-05 M.
Turning to `CC1CCC2C(=CCC(O)C2(C)C)C1(C)Cc1c(O)cc(CO)c(C=O)c1O` (centres unmarked) [NCGC00380764-01], the “CC-v2” value was -2.2 and the Efficacy is given as -71.029. Under “Zika virus, Vero”, this compound had an AC50 of 4.04e-05 M. For the same compound, the AC50 under setting [1] was 4.04e-05 M.
Regarding `CO[C@H]1/C=C/C=C/C=C/C[C@H](OC(=O)[C@@H](C)NC(=O)C2CCCCC2)[C@H](C)[C@@H](O)/C(C)=C\CCc2cc(O)cc(c2)NC(=O)C1` [NCGC00380800-01], the “CC-v2” value is -1.2 and the Efficacy was -73.026. Where the note is “Zika virus, Vero”, this compound showed a concentration at half-maximal activity (AC50) of 5.44e-06 M. Besides, the half-maximal activity concentration (AC50) under setting [1] is 5.44e-06 M.
Consider `C/C(=C\CCC(C)CCO)C(=O)OC1(C)CCC2C(C(=O)O)=COC(OC3OC(CO)C(O)C(O)C3O)C21` (centres unmarked) [NCGC00380886-01], for which the Curve class is -3 and the Efficacy was -68.93. For the same compound, where the note is “Zika virus, Vero”, half-maximal activity (AC50) was put at 1.12e-05 M and the Emax is -7.99%. Besides, where the note is “Zika virus, Vero, read-out: Log AC50 (converted)”, the AC50 is 1.12e-05 M.
For the compound `C=C(CO)C(=O)O[C@H]1C/C(C)=C/CC/C(CO)=C/[C@H]2OC(=O)C(=C)[C@H]12` [NCGC00380889-01], the “CC-v2” value is -3 and the Efficacy is reported as -76.574. This compound came in with an AC50 (Zika virus, Vero) of 1.43e-05 M. In addition, the AC50 under setting [1] was 1.43e-05 M.
With `COc1c2c(c(C)c3c1C(=O)OC3)OC1(C)CC(O)C34OC(OC)(CCC3(C)C1C2)OC4(C)CO` (centres unmarked) [NCGC00380890-01], the “CC-v2” value is -3 and the Efficacy is -69.031. This compound gave an AC50 (Zika virus, Vero) of 1.42e-05 M. Also, under setting [1], the concentration at half-maximal activity (AC50) was 1.42e-05 M.
For `COc1cc2c(cc1O)C(c1ccc(O)cc1)C(C)C(C)C2` (centres unmarked) [NCGC00380925-01], the “CC-v2” value is -3 and the Efficacy is on record as -32.851. Under “Zika virus, Vero”, this compound returned an AC50 of 6.51e-05 M. Moreover, the AC50 under setting [1] is 6.51e-05 M.
On to `C=C(C)C(=O)OC1CC2(C)OC(=CC2=O)C(=C)CC2OC(=O)C(=C)C12` (centres unmarked) [NCGC00381113-01], for which the AC50 is 2.02e-05 M under setting [2] and 2.02e-05 M under setting [3]. Also, under setting [4], the Efficacy is given as -29.164.
Regarding `C=C(C)C1CCC(C)C12CC(O)C1(C)OC1C2OC(=O)C(N)CCC(=O)O` (centres unmarked) [NCGC00381118-01], the “CC-v2” value is recorded as -3 and the Efficacy is on record as -55.082. Moreover, the activity (Zika virus, Vero) was half-maximal at 2.02e-05 M (AC50). The concentration at half-maximal activity (AC50) under setting [1] is 2.02e-05 M.
Turning to `CC(=O)CC1CCC(C(C)C(=O)OCC(O)CO)O1` (centres unmarked) [NCGC00381119-01], the “CC-v2” value is -3 and the Efficacy is -53.159. Where the note is “Zika virus, Vero”, the AC50 turned out to be 2.91e-05 M. The AC50 under setting [1] was 2.91e-05 M.
On to `CC1=CC2(O)/C=C/C(C)(O)C(O)C(O)/C=C/C(=O)OC23C(=O)NC(CC(C)C)C3C1C` (centres unmarked) [NCGC00381121-01], for which the “CC-v2” value was -3 and the Efficacy was -74.853. Moreover, the AC50 (Zika virus, Vero) came out at 1.59e-05 M. Also, under setting [1], the AC50 is 1.59e-05 M.
With `C[C@@H]1CCC2C(C)(C)[C@H](O)CC[C@]2(C)[C@@]12Cc1c(O)cc3c(c1O2)CN(CCO)C3=O` (some centres unmarked) [NCGC00381123-01], the “CC-v2” value is on record as -3 and the Efficacy is on record as -75.159. This compound also gave a concentration at half-maximal activity (AC50) (Zika virus, Vero) of 8.93e-06 M. Besides, under setting [1], the AC50 is 8.93e-06 M.
Regarding `C/C=C(\C)C(=O)OC1CC2C(CC=C3CC(OC4CC(OC)C(OC5CC(OC)C(OC6CC(OC)C(OC7CC(OC)C(OC8CC(OC)C(OC9OC(CO)C(O)C(O)C9O)C(C)O8)C(C)O7)C(C)O6)C(C)O5)C(C)O4)CCC32C)C2(O)CCC(C(C)=O)C12C` (centres unmarked) [NCGC00381127-01], the AC50 (Zika virus, Vero, primary qHTS curve fit, 194 cherry-picked compounds, log10 of molar AC50, read-out: Log AC50 (converted)) was 4.36e-06 M and the AC50 (Zika virus, Vero, primary qHTS curve fit, values match uM against the Log AC50 column, read-out: AC50) is 4.36e-06 M. Besides, for the setting “Zika virus, Vero, response at highest concentration”, the Emax stood at 4.53%. Besides, the Curve class (qHTS curve class, negative sign = inhibitory curve) is given as -3.
`CC(C)(O)C(O)C(=O)OCc1ccc(O[C@@H]2O[C@H](CO)[C@@H](O)[C@H](O)[C@H]2O)cc1` (some centres unmarked) [NCGC00381128-01]: the “CC-v2” value is reported as -3 and the Efficacy is recorded as -65.299. This compound also came in with an AC50 (Zika virus, Vero) of 1e-05 M. Besides, the AC50 under setting [1] is 1e-05 M.
Regarding `CC1=CC2/C=C(\C)CCC(O)C3OC(C)(C)OC3CC(=O)OC23C(=O)NC(CC(C)C)C3C1C` (centres unmarked) [NCGC00381131-01], the “CC-v2” value is on record as -3 and the Efficacy was -69.811. The activity (Zika virus, Vero) was half-maximal at 1.42e-05 M (AC50). Under setting [1], the AC50 is 1.42e-05 M.
As for `C=C1C(=O)O[C@@H]2C(OC(=O)/C(C)=C\C)/C(C)=C\C(=O)/C=C(\C)C[C@H](O)[C@@H]12` (some centres unmarked) [NCGC00381208-01], the “CC-v2” value is reported as -3 and the Efficacy is given as -35.291. Moreover, where the note is “Zika virus, Vero”, half-maximal activity (AC50) was put at 5.08e-05 M. Besides, the AC50 under setting [1] was 5.08e-05 M.
Regarding `CCC(C)C(=O)OC1CC(O)C23C4OCC5(C(O)CC2C1(C)C(O)O4)C3C(=O)CC1(C)C(c2ccoc2)CC2OC215` (centres unmarked) [NCGC00381227-01], the AC50 was 6.32e-06 M under setting [2] and 6.32e-06 M under setting [3]. Further, the “CC-v2” value under setting [5] was -2.2. The Efficacy under setting [4] is on record as -29.737.
Regarding `CC(=O)OC[C@]12C[C@H](OC(C)=O)C(C)=C[C@H]1O[C@@H]1[C@H](O)[C@@H](O)[C@@]2(C)[C@]12CO2` [NCGC00381306-01], the Efficacy was -39.385, the “Log AC50 (M)” value is listed as -5.644 M and the “Max Resp” value is given as -23.356. Also, the AC50 (read-out: AC50) stood at 2.27e-06 M.
Regarding `C=C1C(=O)OC2/C=C(\C)C3=CC(=O)C(C)(CC(OC(=O)/C(C)=C/COC(C)=O)C12)O3` (centres unmarked) [NCGC00384503-01], the “CC-v2” value is -2.1 and the Efficacy is given as -109.374. This compound showed an AC50 (Zika virus, Vero) of 3.17e-05 M. Further, under setting [1], the AC50 is 3.17e-05 M.
Consider `CC1=CC(=O)[C@@H](O)[C@]2(C)C3[C@@H](O)[C@@H]4OC(=O)[C@@H]([C@H]4C)[C@]3(C)C(=O)C[C@@H]12` (some centres unmarked) [NCGC00384574-01], for which the “CC-v2” value is reported as -1.2 and the Efficacy is recorded as -58.007. In addition, the AC50 (Zika virus, Vero) is 1.61e-06 M. Also, the AC50 under setting [1] was 1.61e-06 M.
With `C=C1CC2OC(=O)C(=C)C2C(OC(=O)/C(C)=C\C)CC2(C)OC1=CC2=O` (centres unmarked) [NCGC00384607-01], the “CC-v2” value was -3 and the Efficacy is -115.469. Also, the AC50 (Zika virus, Vero) is 4.53e-05 M. For the same compound, the AC50 under setting [1] is 4.53e-05 M.
For the compound `COC1CCCC(C)OC(=O)Cc2cc(O)cc(O)c2C(=O)C1` (centres unmarked) [NCGC00384664-01], the half-maximal activity concentration (AC50) was 4.53e-05 M under setting [2] and 4.53e-05 M under setting [3]. Besides, the “CC-v2” value under setting [5] is -3. The Efficacy under setting [4] is on record as -54.826.

By AC50 is commonly meant the concentration giving half of the maximal activity seen.
